Measurements: BindingDB's records for patent US20250115590 (Foresee Pharmaceuticals USA, 2025)

Molecular target: Macrophage metalloelastase (Homo sapiens, UniProt P39900)
Experiment: MMP Inhibitory Assays
Method: The inhibitory effect of compounds on the rate of cleaving fluorogenic MMP substrate (Enzo, BML-P128) by recombinant human MMP-12 catalytic domain (Enzo, BML-SE138) was carried out by methods known in the art. Briefly, to each well of a 96-well black opaque plate, all the reagents were sequentially added by pipetting, and the final reaction contained 4 nM of recombinant human MMP-12 catalytic domain, […] MMP substrate, and various concentrations (0.15 nM to 10,000 nM) of tested compound dilutions in HEPES buffer (pH 7.5) containing 10 mM of CaCl2, 0.01% Brij 35 (polyoxyethylene (23) lauryl ether), and 0.1 mg/ml of BSA. The enzyme and compounds were pre-incubated on a shaker to mix in wells. After an hour of mixing, fluorogenic substrate was added to each well. Reaction without enzyme was used as a blank control in the plate. The plate was then fed into a plate reader to measure fluorescence intensity at Excitation/Emission wavelengths of 340 nm/440 nm every 10 mins for at least 1 hour at 37° C. The IC50 of each compound in MMP-12 inhibition was determined by using a readout obtained at time point 30 minutes.

Macrophage metalloelastase, sequence (P39900 whole entry): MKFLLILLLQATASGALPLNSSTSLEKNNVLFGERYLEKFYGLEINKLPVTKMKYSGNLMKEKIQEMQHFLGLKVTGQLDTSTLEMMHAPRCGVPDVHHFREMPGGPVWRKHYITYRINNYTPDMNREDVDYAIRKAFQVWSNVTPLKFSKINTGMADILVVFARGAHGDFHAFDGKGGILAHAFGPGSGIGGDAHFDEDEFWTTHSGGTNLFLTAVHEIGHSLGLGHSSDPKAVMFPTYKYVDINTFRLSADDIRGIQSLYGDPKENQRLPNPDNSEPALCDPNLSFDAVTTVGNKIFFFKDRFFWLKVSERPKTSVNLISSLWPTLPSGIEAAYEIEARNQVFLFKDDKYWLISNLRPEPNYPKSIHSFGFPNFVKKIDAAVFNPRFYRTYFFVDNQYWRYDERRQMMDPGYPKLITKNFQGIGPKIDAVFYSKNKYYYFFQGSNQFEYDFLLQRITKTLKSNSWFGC

Row | Structure (SMILES) | IC50
1 | Cc1cccc(COc2ccc(Sc3ocnc3C3NC(=O)NC3=O)cc2)c1 (configuration not stated) [US20250115590, Compound OC-8] | > 1000 nM
2 | O=C1NC(=O)C(c2ncoc2Sc2ccc(OCc3cccc(CO)c3)cc2)N1 (configuration not stated) [US20250115590, Compound OC-9] | > 1000 nM
